In patent US4540709A, “Method for treatment of diseases mediated by PAF using 5-allyl-2-(3,4-Dimethoxyphenyl)-3a,α-methoxy-3-methyl-2,3,3a,6-tet rahydro-6-oxobenzofuran” (Merck & Co., Inc., priority 1983, dated 1985):

Legend:
human PMN = assay: PAF-induced human PMN secretion; format: cell-based; details: in vitro
guinea pig ileum = assay: Histamine-induced ileum contraction in guinea pigs
H1 = assay: Binding of H1 antagonist (3H-pyrilamine) to guinea pig brain membrane
human platelets = assay: PAF-induced platelet aggregation (human platelets); format: cell-based; details: in vitro
[1] = target: T1, PAF specific receptor binding site on rabbit platelet plasma membranes (Oryctolagus cuniculus, UniProt G1TEI7); assay: Inhibition of 3H-PAF binding to rabbit platelet plasma membrane; details: in vitro, 0° C., pH 7.5
T1 construct: from tissue; host or cells: rabbit platelet plasma membranes
T1 sequence (G1TEI7 1-342): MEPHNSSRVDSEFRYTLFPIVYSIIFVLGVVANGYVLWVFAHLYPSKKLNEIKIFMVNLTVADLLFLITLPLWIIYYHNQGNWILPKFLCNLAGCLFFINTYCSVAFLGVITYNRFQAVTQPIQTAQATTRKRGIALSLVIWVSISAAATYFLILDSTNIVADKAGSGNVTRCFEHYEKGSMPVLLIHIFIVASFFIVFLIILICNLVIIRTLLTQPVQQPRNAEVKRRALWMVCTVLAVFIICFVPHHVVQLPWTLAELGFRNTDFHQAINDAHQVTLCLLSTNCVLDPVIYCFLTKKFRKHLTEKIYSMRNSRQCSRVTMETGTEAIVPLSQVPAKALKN
Description: In vitro, compound (I) inhibits PAF-induced functions in both the cellular and the tissue levels by disturbing the PAF binding to its specific receptor site. The ability of compound (I) to inhibit the PAF binding to its specific receptor binding site on rabbit platelet plasma membranes was measured by an assay recently developed by us.
The inhibition of H^3 -PAF binding to the rabbit platelet plasma membrane by compound (I) was determined by a method employing isotopic labeling and filtration techniques. Generally, a series of Tris-buffered solutions of the selected antagonist at predetermined concentrations were prepared. […] Ten […] of scintillation solution (Aquasol 2, New England Nuclear, Connecticut) was added with stirring to each filter containing the washed residue, and the radioactivity of each resulting suspension was counted in a Packard Tri-Carb 460CD Liquid Scintillation System. Defining the counts from a test sample as "Total binding with antagonist"; the counts from the control sample C1, as "Total binding C1 "; and the counts from the control sample C2 as "non-specific binding C2 ", the percent inhibition of each test antagonist can be determined by the following equation: [formula]

rabbit platelets = assay: PAF-induced platelet aggregation (rabbit platelets); format: cell-based; details: in vitro
[2] = test system: PAF-induced cutaneous vascular permeability; assay: Inhibition of PAF-induced increase of cutaneous vasopermeability, oral activity (Evans Blue); format: in vivo; details: guinea pig
Source text: The specific PAF-antagonistic activities are further established by an in vivo assay (modified procedure of Humphrey et al., Lab. Investigation 46, 422 (1982)) following the protocol described below:
Protocol for the evaluation of the oral activity of PAF antagonists or the inhibition of PAF-induced increase of vasopermeability by PAF-antagonists
I. Animal species: 5 guinea pigs (400-500 g)
0.5% (w/v) aqueous methylcellulose solution sodium nembutol
2% Evans Blue solution: 2 g of Evans Blue in 100 ml of pH 7.5 Tris-buffer solution
Tris-Buffer solution: 150 mM NaCl and 10 mM Tris in […] of water with pH adjusted to 7.5.
1. Weigh the guinea pigs. Label them as control, T1, T2, T3 and T4.
2. Fast the animals overnight.
3. Weigh the animals again after the fasting.
4. Ground and suspend a PAF antagonist such as compound (I) with intensive sonication in 3 ml of 0.5% aqueous methylcellulose solution.
5. Administer orally to each of the animals T1, T2, T3 and T4 an appropriate amount (in terms of mg/kg of bodyweight) of the antagonist solution from 4.), except the control animal which should receive only the 0.5% aq. methylcellulose solution.
6. Forty minutes after the oral administration, anesthetize the animals with sodium nembutol (0.75 ml/kg i.p.).
7. After 20 minutes or when tne anesthetics became effective, inject intracardially to each animal 2 ml/kg body weight of the 2% Evans Blue solution.
8. Wait for 10 minutes. In the meantime, shave the backs of the guniea pigs and get ready for the PAF injection. Select two rows of 5 (a total of ten) sites on the back of each animal and designate them as sites […]
______________________________________
and inject intracutaneously, in duplicate 0.1 ml of a PAF solution in Tris-buffer or 0.1 ml of the Tris-buffer itself (control) according to the following schedule: […]
Sites Solution to be injected […]
15. Measure the absorbance of each supernatant from Step (14) ("skin sample") as well as the plasma extract from Step (13) ("plasma sample") at 620 nm with a Cary 210 spectrophotometer (Varian, Palo Alto, Calif.). […]

guinea pig smooth muscle = assay: PAF-induced guinea pig smooth muscle contraction; details: in vitro
[3] = test system: guinea pig peritoneal PMN (polymorphonuclear leukocytes); assay: PAF-induced guinea pig peritoneal PMN aggregation; format: cell-based; details: in vitro

C=CCC1=CC2(OC)C(=CC1=O)OC(c1ccc(OC)c(OC)c1)C2C (stereo not drawn) [Compound (I), 5-allyl-2-(3,4-dimethoxyphenyl)-3a,α-methoxy-3-methyl-2,3,3a,6-tetrahydro-6-oxobenzofuran]
inhibition of PAF-induced PMN secretion (human PMN): inhibits | inhibition of histamine-induced ileum contraction (guinea pig ileum): no or only minute inhibition | inhibition of binding of H1 antagonist (3H-pyrilamine) (H1): do not inhibit | inhibition of PAF-induced platelet aggregation (human platelets): inhibits | IC50 [1]: 0.174 µM | inhibition of PAF-induced platelet aggregation (rabbit platelets): inhibits | % inhibition ([2]; 25 mg/kg P.O.): 43% | % inhibition ([2]; 50 mg/kg P.O.): 63% | ED50 ([2]; Cavia porcellus, po, P.O.): 30 mg/kg | inhibition of PAF-induced smooth muscle contraction (guinea pig smooth muscle): inhibits | inhibition of PAF-induced peritoneal PMN aggregation [3]: inhibits
